Experimental findings from PubChem BioAssay (NCI) are described below.

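Test compounds were applied to cells in 96-well plates for 48 hours at 5 doses. Definition used: TGI = concentration required for complete inhibition of growth.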

Holding throughout (assay): NCI tumour cell line growth inhibition, 48 h
Test [1] has as its system DMS 273 small cell lung.
The test system of test [2] is NCI-H522 lung.
Test [3] deals with XF 498 CNS.
The test system of test [4] is M19-MEL melanoma.
Test [5] concerns SN12C renal.
Test [6] deals with P388/ADR leukemia.
The subject of test [7] is SR leukemia.
In test [8] the test system is HS 578T breast.

Consider `COc1cc(N=Nc2ccc(OC)c(S(=O)(=O)O)c2)c(C)cc1N=Nc1ccc(/C=C/c2ccc(N=[N+]([O-])c3ccc(/C=C/c4ccc(N=Nc5cc(C)c(N=Nc6ccc(OC)c(S(=O)(=O)O)c6)cc5OC)cc4S(=O)(=O)O)c(S(=O)(=O)O)c3)cc2S(=O)(=O)O)c(S(=O)(=O)O)c1`, for which the TGI in test [1], in test [2], in test [3], in test [4] and in test [5] was over 100 µM in each case.
For the compound `CCCn1cc2c3c(cccc31)C1C=C(C)CN(C)C1C2` (configuration not stated), the TGI was 47.3 µM in test [1], 43.2 µM in test [6], 57.1 µM in test [2] and 60.9 µM in test [5].
With `CCOC(=O)c1csc(NC(=O)CCN2CCCC2)n1`, the TGI in test [7] is over 100 µM.
For `CCOC(=O)c1csc(NC(=O)CCN2CCN(C)CC2)n1`, the TGI in test [8] and in test [7] was over 100 µM throughout.
